How the values were obtained:
plasma proteins = experiment: Plasma protein binding of calcifediol; format: in vitro ADME; settings: human, read-out: bound to plasma proteins
Protocol: The pharmacokinetics of […] were assessed in healthy subjects and subjects with CKD Stage 3 or Stage 4. […] Steady-state levels of serum total 25-hydroxyvitamin D were reached after approximately 3 months. Following multiple dose administration of […], the average steady state concentrations of serum total 25-hydroxyvitamin D were 53 ng/mL and 68 ng/mL for doses of 30 mcg and 60 mcg dose group, respectively. With respect to distribution, calcifediol is extensively bound to plasma proteins (>98%). The mean apparent volume of distribution was 8.8 L in healthy subjects following a single oral dose of […], and 30.1 L in subjects with Stage 3 or Stage 4 chronic kidney disease following repeated dosing. With respect to elimination, the mean elimination half-life of calcifediol was approximately 11 days in healthy individuals following a single dose of […], and approximately 25 days in patients with Stage 3 or Stage 4 chronic kidney disease following repeated once daily dosing. With respect to metabolism, production of calcitriol from calcifediol is catalyzed by the 1α-hydroxylase enzyme, CYP27B1, located in the kidney, parathyroid gland, and other tissues. […] Calcitriol suppresses CYP27B1 and upregulates CYP24A1. Excretion of calcifediol occurs primarily through the biliary fecal route. […]

[1] = Solubility of calcifediol monohydrate; format: physicochemical
Text: In one embodiment, calcifediol is synthetically manufactured as calcifediol monohydrate. […] Chemically, calcifediol monohydrate is (3β,5Z,7E)-9,10-secocholesta-5,7,10(19)-triene-3,25-diol monohydrate and its structural formula is: […]

| fraction unbound (plasma proteins) | solubility in alcohol and fatty oils [1] | solubility in water [1] | Structure (SMILES) |
| --- | --- | --- | --- |
| < 0.02 | – | – | C=C1CC[C@H](O)C/C1=C/C=C1\CCC[C@]2(C)[C@@H]([C@H](C)CCCC(C)(C)O)CC[C@@H]12 [calcifediol, 25-hydroxyvitamin D3] |
| – | soluble | practically insoluble | C=C1CC[C@H](O)C/C1=C/C=C1\CCC[C@]2(C)[C@@H]([C@H](C)CCCC(C)(C)O)CC[C@@H]12 [Calcifediol monohydrate, (3β,5Z,7E)-9,10-secocholesta-5,7,10(19)-triene-3,25-diol monohydrate] |
